Laboratory results taken from patent US9758485B2, “Compounds for controlling arthropods” (priority 2013, dated 2017).

What was measured:
[1] = logP determination by HPLC on a reversed-phase column (C18), EEC Directive 79/831 Annex V.A8; format: physicochemical; conditions: for log P: HPLC-MS, reversed-phase column (C18); for logP^a): HPLC-MS method a), Table I-T3
[2] = system: Boophilus microplus; experiment: Boophilus microplus - injection test; format: in vivo; conditions: application rate 20 μg/animal; injected into engorged adult female ticks; laying of fertile eggs, after 7 days
Method: Boophilus microplus—Injection Test
(§1) Solvent: dimethyl sulphoxide
To produce an appropriate active ingredient formulation, 10 mg of active ingredient are mixed with 0.5 ml of solvent and the concentrate is diluted with solvent to the desired concentration.
1 μl of the active ingredient solution is injected into the abdomen of 5 engorged adult female cattle ticks (Boophilus microplus). The animals are transferred into dishes and kept in a climate-controlled room.
Efficacy is assessed after 7 days by laying of fertile eggs. Eggs which are not visibly fertile are stored in a climate-controlled cabinet until the larvae hatch after about 42 days. An efficacy of 100% means that none of the ticks has laid any fertile eggs; 0% means that all the eggs are fertile.

[3] = system: Ctenocephalides felis; experiment: Ctenocephalides felis - oral test; format: in vivo; conditions: application rate 100 ppm in citrated cattle blood; adult fleas; kill after 2 days
Method: Ctenocephalides felis—Oral Test
as §1
For the purpose of producing an appropriate active ingredient formulation, 10 mg of active ingredient are mixed with 0.5 ml of dimethyl sulphoxide. Dilution with citrated cattle blood gives the desired concentration.
About 20 unfed adult cat fleas (Ctenocephalides felis) are placed into a chamber which is closed at the top and bottom with gauze. A metal cylinder whose bottom end is closed with parafilm is placed onto the chamber. The cylinder contains the blood/active ingredient preparation, which can be imbibed by the fleas through the parafilm membrane.
After 2 days, the kill in % is determined. 100% means that all of the fleas have been killed; 0% means that none of the fleas have been killed.

[4] = system: Lucilia cuprina; experiment: Lucilia cuprina test; format: in vivo; conditions: application rate 100 ppm; L1 larvae in minced horsemeat; kill after 2 days
Method: as §1
To produce an appropriate active ingredient formulation, 10 mg of active ingredient are mixed with 0.5 ml of dimethyl sulphoxide, and the concentrate is diluted with water to the desired concentration.
About 20 L1 larvae of the Australian sheep blowfly (Lucilia cuprina) are transferred into a test vessel containing minced horsemeat and the active ingredient preparation of the desired concentration.
After 2 days, the kill in % is determined. 100% means that all the larvae have been killed; 0% means that none of the larvae have been killed.

Compound | log P [1] | efficacy [2] [%] | efficacy [3] [%] | efficacy [4] [%] | logP^a) [1]
Cc1cc(C(F)(C(F)(F)F)C(F)(F)F)cc(C)c1-n1cc(-c2cnc(C3CC3)c(C(=O)NC3CC3)c2)cn1 [I-T3-140] | 4.2 | 100 | 100 | 100 | –
CCc1cc(C(F)(C(F)(F)F)C(F)(F)F)ccc1-n1cc(-c2ccc(Cl)c(C(=O)NC3CSC3)c2)cn1 [I-T3-41] | – | 100 | 95 | 90 | 4.9
Cc1cc(C(F)(C(F)(F)F)C(F)(F)F)cc(C)c1-n1cc(-c2cc(C(=O)NC3(C#N)CC3)c(F)cc2Cl)cn1 [I-T3-12] | – | 100 | 100 | 80 | 4.7
O=C(NC1CC1)c1cc(-c2cnn(-c3ncc(C(F)(F)F)cc3Cl)c2)ccc1Cl [I-T3-60] | – | 100 | 90 | 90 | 3.2
CCc1cc(C(F)(C(F)(F)F)C(F)(F)F)cc(C)c1-n1cc(-c2cccc(C(=O)NC3(C#N)CC3)c2F)cn1 [I-T3-69] | – | 100 | 100 | 95 | 4.5
Cc1cc(C(F)(C(F)(F)F)C(F)(F)F)cc(C)c1-n1cc(-c2cc(C(=O)NC3(C#N)CC3)cc(C(F)(F)F)c2)cn1 [I-T3-18] | – | 100 | 100 | 100 | 4.7
CCc1cc(C(F)(C(F)(F)F)C(F)(F)F)cc(C)c1-n1cc(-c2cccc(C(=O)NC3CC3)c2F)cn1 [I-T3-70] | – | 100 | 95 | 100 | 4.7
N#CC1(NC(=O)c2cc(-c3cnn(-c4c(F)cc(C(F)(F)F)cc4F)c3)ccc2Cl)CC1 [I-T3-49] | – | 100 | 100 | 100 | 3.2
O=C(NC1CSC1)c1cc(-c2cnn(-c3ccc(C(F)(C(F)(F)F)C(F)(F)F)cc3OC(F)(F)F)c2)ccc1Cl [I-T3-37] | – | 100 | 90 | 100 | 4.9
O=C(NCC(F)(F)F)c1cc(-c2cnn(-c3ccc(C(F)(C(F)(F)F)C(F)(F)F)cc3Cl)c2)ccc1Cl [I-T3-32] | – | 100 | 100 | 100 | 4.7
CCc1cc(C(F)(C(F)(F)F)C(F)(F)F)ccc1-n1cc(-c2cncc(C(=O)NC3(C#N)CC3)c2)cn1 [I-T3-78] | – | 100 | 100 | 100 | 3.8
CCc1cc(C(F)(C(F)(F)F)C(F)(F)F)ccc1-n1cc(-c2ccc(Cl)c(C(=O)NCC(F)(F)F)c2)cn1 [I-T3-40] | – | 100 | 100 | 100 | 4.9
CCc1cc(C(F)(F)C(F)(F)F)cc(C)c1-n1cc(-c2ccc(Cl)c(C(=O)NC3CSC3)c2)cn1 [I-T3-83] | – | 100 | 95 | 100 | 4.6
Cn1ccc(NC(=O)c2cc(-c3cnn(-c4c(Cl)cc(C(F)(F)F)cc4Cl)c3)cnc2Cl)n1 [I-T3-146] | 2.8 | 100 | 100 | 90 | –
Cc1cc(C(F)(C(F)(F)F)C(F)(F)F)cc(C)c1-n1cc(-c2cccc(C(=O)NC3(C#N)CC3)c2F)cn1 [I-T3-10] | – | 100 | 100 | 100 | 4.2
N#CC1(NC(=O)c2cc(-c3cnn(-c4ncc(C(F)(F)F)cc4Cl)c3)ccc2Cl)CC1 [I-T3-59] | – | 100 | 100 | 100 | 3.1
O=C(NCCC(F)(F)F)c1cc(-c2cnn(-c3ccc(C(F)(C(F)(F)F)C(F)(F)F)cc3Cl)c2)ccc1Cl [I-T3-33] | – | 100 | 100 | 100 | 4.7
